Patent publication US9296741B2, “Bromodomain inhibitors” (priority 2012, dated 2016)
Like-named read-outs stand apart in the source and are kept apart here.

Experiments:
[1] = molecular target: human BRD4 first bromodomain (BDI_K57-E168) (Homo sapiens (Human), UniProt O60885); assay: TR-FRET bromodomain binding assay, BRD4 first bromodomain
[2] = Mouse liver microsome stability assay; format: in vitro ADME; settings: male, CD1, mouse, microsomes, pH 7.4
[3] = Rat liver microsome stability assay; format: in vitro ADME; settings: for half-life at 0.5 μM: 0.25 mg/mL microsomal protein, read-out: Stability in rat liver microsomes (t1/2 in minutes)
[4] = molecular target: human BRD4 second bromodomain (BDII_E352-M457) (Homo sapiens (Human), UniProt O60885); assay: TR-FRET bromodomain binding assay, BRD4 second bromodomain
[5] = Human liver microsome stability assay; format: in vitro ADME; settings: human, microsomes, pH 7.4; for half-life at 0.5 μM: both sexes
[6] = tested on: breast cancer cell line MX-1; assay: MX-1 cell line proliferation assay; format: cell-based, human; settings: MX-1 cells, 3-day proliferation, Cell Titer Glo, read-out: Cellular proliferation: EC50
[7] = rat liver microsomes (male Sprague-Dawley), 0.5 μM test compound, pH 7.4, 37° C.

SMILES: Cn1cc(-c2cc(CC(=O)O)ccc2OCc2ccccc2)c2cc[nH]c2c1=O [Example 35, [4-(benzyloxy)-3-(6-methyl-7-oxo-6,7-dihydro-1H-pyrrolo[2,3-c]pyridin-4-yl)phenyl]acetic acid]
- Ki [1]: 661 nM
- half-life at 0.5 μM [2]: 42 min
- half-life at 0.5 μM [3, 7]: > 120 min
- Ki [4]: 1140 nM
- half-life at 0.5 μM [5]: 37 min

SMILES: Cn1cc(-c2ccccc2C(=O)N2CCOCC2)c2cc[nH]c2c1=O [Example 61, 6-methyl-4-[2-(morpholin-4-ylcarbonyl)phenyl]-1,6-dihydro-7H-pyrrolo[2,3-c]pyridin-7-one]
- Ki [1]: > 13000 nM
- half-life at 0.5 μM [2]: > 120 min
- half-life at 0.5 μM [3, 7]: > 120 min
- Ki [4]: > 22200 nM
- half-life at 0.5 μM [5]: > 120 min

SMILES: Cn1cc(-c2cc(C(=O)Nc3ccc4cn[nH]c4c3)ccc2Oc2ccc(F)cc2F)c2cc[nH]c2c1=O [Example 118, 4-(2,4-difluorophenoxy)-N-(1H-indazol-6-yl)-3-(6-methyl-7-oxo-6,7-dihydro-1H-pyrrolo[2,3-c]pyridin-4-yl)benzamide]
- half-life at 0.5 μM [2]: 18 min
- half-life at 0.5 μM [3, 7]: 34 min
- half-life at 0.5 μM [5]: 81 min

SMILES: Cn1cc(-c2cc(C(=O)N3CCN(C(=O)N4CCCC4)CC3)ccc2Oc2ccc(F)cc2F)c2cc[nH]c2c1=O [Example 119, 4-[2-(2,4-difluorophenoxy)-5-{[4-(pyrrolidin-1-ylcarbonyl)piperazin-1-yl]carbonyl}phenyl]-6-methyl-1,6-dihydro-7H-pyrrolo[2,3-c]pyridin-7-one]
- Ki [1]: 44.4 nM
- half-life at 0.5 μM [2]: 2 min
- half-life at 0.5 μM [3, 7]: 24 min
- Ki [4]: 22.5 nM
- half-life at 0.5 μM [5]: 14 min

SMILES: CN(C)c1ccc(NC(=O)c2ccc(Oc3ccc(F)cc3F)c(-c3cn(C)c(=O)c4[nH]ccc34)c2)cc1 [Example 120, 4-(2,4-difluorophenoxy)-N-[4-(dimethylamino)phenyl]-3-(6-methyl-7-oxo-6,7-dihydro-1H-pyrrolo[2,3-c]pyridin-4-yl)benzamide]
- Ki [1]: 190 nM
- half-life at 0.5 μM [2]: 10 min
- half-life at 0.5 μM [3, 7]: 12 min
- Ki [4]: 304 nM
- half-life at 0.5 μM [5]: 19 min

SMILES: Cn1cc(-c2cc(C(=O)NCCN3CCCC3=O)ccc2Oc2ccc(F)cc2F)c2cc[nH]c2c1=O [Example 122, 4-(2,4-difluorophenoxy)-3-(6-methyl-7-oxo-6,7-dihydro-1H-pyrrolo[2,3-c]pyridin-4-yl)-N-[2-(2-oxopyrrolidin-1-yl)ethyl]benzamide]
- half-life at 0.5 μM [2]: 2 min
- half-life at 0.5 μM [3, 7]: 16 min
- half-life at 0.5 μM [5]: 8 min

SMILES: CN(C)C(=O)CN1CCN(C(=O)c2ccc(Oc3ccc(F)cc3F)c(-c3cn(C)c(=O)c4[nH]ccc34)c2)CC1 [Example 127, 2-{4-[4-(2,4-difluorophenoxy)-3-(6-methyl-7-oxo-6,7-dihydro-1H-pyrrolo[2,3-c]pyridin-4-yl)benzoyl]piperazin-1-yl}-N,N-dimethylacetamide]
- half-life at 0.5 μM [2]: 20 min
- half-life at 0.5 μM [3, 7]: 71 min
- half-life at 0.5 μM [5]: 44 min

SMILES: Cn1cc(-c2cc(C(=O)NCCc3c[nH]c4ccccc34)ccc2Oc2ccc(F)cc2F)c2cc[nH]c2c1=O [Example 133, 4-(2,4-difluorophenoxy)-N-[2-(1H-indol-3-yl)ethyl]-3-(6-methyl-7-oxo-6,7-dihydro-1H-pyrrolo[2,3-c]pyridin-4-yl)benzamide]
- half-life at 0.5 μM [2]: 3 min
- half-life at 0.5 μM [3, 7]: 5 min
- half-life at 0.5 μM [5]: 4 min

SMILES: Cn1cc(-c2ccccc2C(=O)c2ccc(Cl)cc2)c2cc[nH]c2c1=O [Example 139, 4-[2-(4-chlorobenzoyl)phenyl]-6-methyl-1,6-dihydro-7H-pyrrolo[2,3-c]pyridin-7-one]
- half-life at 0.5 μM [2]: 7 min
- half-life at 0.5 μM [3, 7]: 8 min
- half-life at 0.5 μM [5]: 13 min

SMILES: Cn1cc(-c2ccccc2C(O)c2ccc(Cl)cc2)c2cc[nH]c2c1=O (centres unmarked) [Example 140, 4-{2-[(4-chlorophenyl)(hydroxy)methyl]phenyl}-6-methyl-1,6-dihydro-7H-pyrrolo[2,3-c]pyridin-7-one]
- half-life at 0.5 μM [2]: 18 min
- half-life at 0.5 μM [3, 7]: 13 min
- half-life at 0.5 μM [5]: 19 min

SMILES: Cn1cc(-c2cc(S(C)(=O)=O)ccc2Oc2cccnc2)c2cc[nH]c2c1=O [Example 190, 6-methyl-4-[5-(methylsulfonyl)-2-(pyridin-3-yloxy)phenyl]-1,6-dihydro-7H-pyrrolo[2,3-c]pyridin-7-one]
- half-life at 0.5 μM [2]: 8 min
- half-life at 0.5 μM [3, 7]: 66 min
- half-life at 0.5 μM [5]: 27 min

SMILES: CCS(=O)(=O)c1ccc(OC2CCC(=O)CC2)c(-c2cn(C)c(=O)c3[nH]ccc23)c1 [Example 199, 4-{5-(ethylsulfonyl)-2-[(4-oxocyclohexyl)oxy]phenyl}-6-methyl-1,6-dihydro-7H-pyrrolo[2,3-c]pyridin-7-one]
- half-life at 0.5 μM [2]: 3 min
- Stability in rat liver microsomes (t1/2 in minutes) ([3]; rat liver microsomes (male Sprague-Dawley), 0.5 μM test compound, […] microsomal protein, pH 7.4, 37° C.): 1 min
- half-life at 0.5 μM [5]: 94 min

SMILES: COc1cc(Br)ccc1-c1cn(C)c(=O)c2[nH]ccc12 [Example 241, 4-(4-bromo-2-methoxyphenyl)-6-methyl-1,6-dihydro-7H-pyrrolo[2,3-c]pyridin-7-one]
- half-life at 0.5 μM [2]: 4 min
- half-life at 0.5 μM [3, 7]: 9 min
- half-life at 0.5 μM [5]: 39 min

SMILES: CCS(=O)(=O)c1ccc(O[C@H]2CC[C@@](C)(OC)CC2)c(-c2cn(C)c(=O)c3[nH]ccc23)c1 [Example 268, 4-(5-(ethylsulfonyl)-2-(cis-4-methoxy-4-methylcyclohexyloxy)phenyl)-6-methyl-1H-pyrrolo[2,3-c]pyridin-7(6H)-one]
- Ki [1]: 0.76 nM
- Stability in rat liver microsomes (t1/2 in minutes) ([3]; rat, microsomes, pH 7.4): 26 min
- Ki [4]: 0.57 nM
- Stability in human liver microsomes (t1/2 in minutes) [5]: 10 min
- EC50 [6]: 6.2 nM

SMILES: CCN(CC)S(=O)(=O)c1cnc(OCC2CC2)c(-c2cn(C)c(=O)c3[nH]ccc23)c1 [Example 272, 6-(cyclopropylmethoxy)-N,N-diethyl-5-(6-methyl-7-oxo-6,7-dihydro-1H-pyrrolo[2,3-c]pyridin-4-yl)pyridine-3-sulfonamide]
- Ki [1]: 10.2 nM
- half-life at 0.5 μM [3, 7]: 4 min
- Ki [4]: 11.6 nM
- half-life at 0.5 μM [5]: 2 min
- EC50 ([6]; Homo sapiens, MX1, 72 h): 112 nM

SMILES: Cn1cc(-c2cc(S(C)(=O)=O)ccc2OC2Cc3ccccc3C2)c2cc[nH]c2c1=O [Example 277, 4-[2-(2,3-dihydro-1H-inden-2-yloxy)-5-(methylsulfonyl)phenyl]-6-methyl-1,6-dihydro-7H-pyrrolo[2,3-c]pyridin-7-one]
- Ki [1]: 6.3 nM
- half-life at 0.5 μM [3, 7]: 5 min
- Ki [4]: 14.3 nM
- half-life at 0.5 μM [5]: 4 min
- EC50 ([6]; Homo sapiens, MX1, 72 h): 21.1 nM

SMILES: CCS(=O)(=O)Cc1ccc(Oc2ccc(F)cc2F)c(-c2cn(C)c(=O)c3[nH]ccc23)c1 [Example 297, 4-{2-(2,4-difluorophenoxy)-5-[(ethylsulfonyl)methyl]phenyl}-6-methyl-1,6-dihydro-7H-pyrrolo[2,3-c]pyridin-7-one]
- Ki [1]: 14.2 nM
- half-life at 0.5 μM [3, 7]: 43 min
- Ki [4]: 5.2 nM
- half-life at 0.5 μM [5]: 83 min
- EC50 ([6]; Homo sapiens, MX1, 72 h): 18.6 nM

SMILES: Cn1cc(-c2cc(S(=O)(=O)N3CCCC3)ccc2Oc2ccc(F)cc2F)c2cc[nH]c2c1=O [Example 299, 4-[2-(2,4-difluorophenoxy)-5-(pyrrolidin-1-ylsulfonyl)phenyl]-6-methyl-1,6-dihydro-7H-pyrrolo[2,3-c]pyridin-7-one]
- Ki [1]: 80.1 nM
- half-life at 0.5 μM [3, 7]: 2 min
- Ki [4]: 5 nM
- half-life at 0.5 μM [5]: 1 min
- EC50 ([6]; Homo sapiens, MX1, 72 h): 36 nM

SMILES: Cn1cc(-c2cc(CN3CCOCC3)ccc2OCC2CC2)c2cc[nH]c2c1=O [Example 316, 4-[2-(cyclopropylmethoxy)-5-(morpholin-4-ylmethyl)phenyl]-6-methyl-1,6-dihydro-7H-pyrrolo[2,3-c]pyridin-7-one]
- half-life at 0.5 μM [2]: 12 min
- half-life at 0.5 μM [3, 7]: 3 min
- half-life at 0.5 μM [5]: 47 min

SMILES: Cn1cc(-c2cc(S(=O)(=O)NCc3cccnc3)ccc2OCC2CC2)c2cc[nH]c2c1=O [Example 333, 4-(cyclopropylmethoxy)-3-(6-methyl-7-oxo-6,7-dihydro-1H-pyrrolo[2,3-c]pyridin-4-yl)-N-(pyridin-3-ylmethyl)benzenesulfonamide]
- Ki [1]: 36.9 nM
- half-life at 0.5 μM [3, 7]: 3 min
- Ki [4]: 32.7 nM
- half-life at 0.5 μM [5]: 0.8 min
- EC50 ([6]; Homo sapiens, MX1, 72 h): 74 nM

SMILES: CCS(=O)(=O)N(Cc1ccccn1)c1ccc(Oc2ccc(F)cc2F)c(-c2cn(C)c(=O)c3[nH]ccc23)c1 [Example 342, N-[4-(2,4-difluorophenoxy)-3-(6-methyl-7-oxo-6,7-dihydro-1H-pyrrolo[2,3-c]pyridin-4-yl)phenyl]-N-(pyridin-2-ylmethyl)ethanesulfonamide]
- Ki [1]: 71.9 nM
- half-life at 0.5 μM [3, 7]: 5 min
- Ki [4]: 11.5 nM
- half-life at 0.5 μM [5]: 2 min
- EC50 ([6]; Homo sapiens, MX1, 72 h): 510 nM

SMILES: CCS(=O)(=O)N(CC1CC1)c1ccc(Oc2ccc(F)cc2F)c(-c2cn(C)c(=O)c3[nH]ccc23)c1 [Example 343, N-(cyclopropylmethyl)-N-[4-(2,4-difluorophenoxy)-3-(6-methyl-7-oxo-6,7-dihydro-1H-pyrrolo[2,3-c]pyridin-4-yl)phenyl]ethanesulfonamide]
- Ki [1]: 42.7 nM
- half-life at 0.5 μM [3, 7]: 7 min
- Ki [4]: 4.8 nM
- half-life at 0.5 μM [5]: 2 min
- EC50 ([6]; Homo sapiens, MX1, 72 h): 224 nM

SMILES: Cn1cc(-c2cc(S(=O)(=O)Nc3ccc(F)cc3)ccc2OCC2CC2)c2cc[nH]c2c1=O [Example 347, 4-(cyclopropylmethoxy)-N-(4-fluorophenyl)-3-(6-methyl-7-oxo-6,7-dihydro-1H-pyrrolo[2,3-c]pyridin-4-yl)benzenesulfonamide]
- Ki [1]: 15.6 nM
- half-life at 0.5 μM [3, 7]: 6 min
- Ki [4]: 4 nM
- half-life at 0.5 μM [5]: 4 min
- EC50 ([6]; Homo sapiens, MX1, 72 h): 83.9 nM
